Reference: ChEMBL document CHEMBL1201862, “PubChem BioAssay data set” (2004)
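Cells were grown in 96-well plates and exposed to each compound for 48 hours at five concentrations; endpoints were interpolated linearly between bracketing concentrations, or set to the highest concentration if not reached. Abbreviation: GI50, concentration required for 50% inhibition of growth.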 Calls of active or inactive are those of the source. Rule as the data show it: active = GI50 up to about 1.1 µM and inactive = higher.

Columns and labels:
Test in all cases: growth of human tumour cells (NCI), 48 h
NCI-H226 = tested on: NCI-H226
HL-60 = tested on: HL-60
HT-29 = tested on: HT-29
SK-MEL-5 = tested on: SK-MEL-5
SK-MEL-2 = tested on: SK-MEL-2
NCI-H23 = tested on: NCI-H23
SF-295 = tested on: SF-295
SNB-19 = tested on: SNB-19
IGROV-1 = tested on: IGROV-1
SW-620 = tested on: SW-620
A549 = tested on: A549
KM12 = tested on: KM12
RXF 393 = tested on: RXF 393
COLO 205 = tested on: COLO 205
NCI-H522 = tested on: NCI-H522
NCI-H460 = tested on: NCI-H460
EKVX = tested on: EKVX
K562 = tested on: K562
UACC-257 = tested on: UACC-257
OVCAR-5 = tested on: OVCAR-5

Row | Structure (SMILES) | GI50 (NCI-H226) | GI50 (HL-60) | GI50 (HT-29) | GI50 (SK-MEL-5) | GI50 (SK-MEL-2) | GI50 (NCI-H23) | GI50 (SF-295) | GI50 (SNB-19) | GI50 (IGROV-1) | GI50 (SW-620) | GI50 (A549) | GI50 (KM12) | GI50 (RXF 393) | GI50 (COLO 205) | GI50 (NCI-H522) | GI50 (NCI-H460) | GI50 (EKVX) | GI50 (K562) | GI50 (UACC-257) | GI50 (OVCAR-5)
1 | O=c1ccn([C@@H]2C=C(CO)[C@@H](O)[C@H]2O)c(=O)[nH]1 | > 625 µM (inactive) | > 625 µM (inactive) | > 625 µM (inactive) | > 625 µM (inactive) | > 625 µM (inactive) | > 625 µM (inactive) | > 625 µM (inactive) | > 625 µM (inactive) | > 625 µM (inactive) | > 625 µM (inactive) | > 625 µM (inactive) | > 625 µM (inactive) | > 625 µM (inactive) | > 625 µM (inactive) | > 625 µM (inactive) | > 625 µM (inactive) | – | – | – | –
2 | COc1ccc(/C=c2\sc3n(c2=O)CCN=3)cc1 | – | 69.3 µM (inactive) | > 100 µM (inactive) | 80 µM (inactive) | > 100 µM (inactive) | > 100 µM (inactive) | > 100 µM (inactive) | – | – | > 100 µM (inactive) | > 100 µM (inactive) | > 100 µM (inactive) | 31.1 µM (inactive) | – | 84.5 µM (inactive) | > 100 µM (inactive) | > 100 µM (inactive) | 43.7 µM (inactive) | 47.5 µM (inactive) | > 100 µM (inactive)
3 | c1ccc(-n2cnnc2-c2nsc3ccccc23)cc1 | – | > 100 µM (inactive) | > 100 µM (inactive) | > 100 µM (inactive) | > 100 µM (inactive) | > 100 µM (inactive) | – | > 100 µM (inactive) | > 100 µM (inactive) | > 100 µM (inactive) | > 100 µM (inactive) | > 100 µM (inactive) | > 100 µM (inactive) | > 100 µM (inactive) | – | > 100 µM (inactive) | > 100 µM (inactive) | > 100 µM (inactive) | > 100 µM (inactive) | > 100 µM (inactive)
4 | CCCN1C(=O)/C(=C(/O)C(=O)OCC)C(c2ccc(OC)c(OC)c2)C1=O (stereo not given) | > 100 µM (inactive) | > 100 µM (inactive) | > 100 µM (inactive) | > 100 µM (inactive) | > 100 µM (inactive) | > 100 µM (inactive) | > 100 µM (inactive) | > 100 µM (inactive) | > 100 µM (inactive) | > 100 µM (inactive) | > 100 µM (inactive) | > 100 µM (inactive) | > 100 µM (inactive) | > 100 µM (inactive) | > 100 µM (inactive) | > 31.6 µM (inactive) | > 100 µM (inactive) | > 100 µM (inactive) | > 100 µM (inactive) | > 100 µM (inactive)
5 | NCCCN(CCCN)CCN(CCN(CCCN)CCCN)CCN(CCCN)CCCN | > 100 µM (inactive) | > 100 µM (inactive) | > 100 µM (inactive) | > 100 µM (inactive) | > 100 µM (inactive) | > 100 µM (inactive) | 55.6 µM (inactive) | > 100 µM (inactive) | > 100 µM (inactive) | > 100 µM (inactive) | > 100 µM (inactive) | – | – | > 100 µM (inactive) | 17 µM (inactive) | > 100 µM (inactive) | – | > 100 µM (inactive) | > 100 µM (inactive) | > 100 µM (inactive)
6 | C[C@H]1O[C@@H](O[C@H]2[C@@H](O)C[C@H](O[C@H]3[C@@H](O)C[C@H](O[C@H]4CC[C@@]5(C)[C@H](CC[C@@H]6[C@@H]5CC[C@]5(C)[C@@H](C7=CC(=O)OC7)CC[C@]65O)C4)O[C@@H]3C)O[C@@H]2C)C[C@H](O)[C@@H]1O [DIGITOXIN] | 0.0635 µM (active) | – | 0.0338 µM (active) | < 0.0212 µM (active) | 0.0641 µM (active) | 0.0185 µM (active) | 0.0258 µM (active) | 0.075 µM (active) | 0.0365 µM (active) | 0.0296 µM (active) | < 0.0157 µM (active) | 0.0553 µM (active) | 0.0175 µM (active) | 0.0501 µM (active) | < 0.01 µM (active) | – | 0.0286 µM (active) | < 0.0246 µM (active) | 0.0582 µM (active) | 0.0543 µM (active)
7 | COc1ccc(C2COc3cc(OC(C)=O)c(OC(C)=O)cc3C2)cc1 (stereo not given) | 24.3 µM (inactive) | 2.54 µM (inactive) | 28.2 µM (inactive) | 25.9 µM (inactive) | 31.7 µM (inactive) | 27.5 µM (inactive) | 14.1 µM (inactive) | 7.74 µM (inactive) | 26.2 µM (inactive) | 14.3 µM (inactive) | 11.9 µM (inactive) | 11.4 µM (inactive) | 15.5 µM (inactive) | 20 µM (inactive) | 1.97 µM (inactive) | 13.9 µM (inactive) | 27.2 µM (inactive) | 16.3 µM (inactive) | 23.6 µM (inactive) | 27.1 µM (inactive)
8 | CCOC(=O)c1ccc(N(CCOS(C)(=O)=O)CCOS(C)(=O)=O)cc1 | – | 39.9 µM (inactive) | 51.6 µM (inactive) | 42.2 µM (inactive) | 55.2 µM (inactive) | 43.3 µM (inactive) | 51.1 µM (inactive) | 90.6 µM (inactive) | 88.5 µM (inactive) | 32 µM (inactive) | 53 µM (inactive) | 67.9 µM (inactive) | 20 µM (inactive) | 64.9 µM (inactive) | 12.9 µM (inactive) | 37 µM (inactive) | 58.3 µM (inactive) | 24.3 µM (inactive) | > 100 µM (inactive) | 34.9 µM (inactive)
9 | CN1COCN/C1=N/C#N | > 100 µM (inactive) | > 100 µM (inactive) | > 100 µM (inactive) | – | > 100 µM (inactive) | – | > 100 µM (inactive) | > 100 µM (inactive) | > 100 µM (inactive) | > 100 µM (inactive) | > 100 µM (inactive) | > 100 µM (inactive) | – | > 100 µM (inactive) | > 100 µM (inactive) | > 100 µM (inactive) | > 100 µM (inactive) | > 100 µM (inactive) | > 100 µM (inactive) | > 100 µM (inactive)
